From paper PMC6658524, “Lysosomal degradation of newly formed insulin granules contributes to β cell failure in diabetes” (Nature Communications, 2019)

What was measured:
Assay in all cases: biochemical
Parameters in all cases: Eurofins KinaseProfiler panel of 60 kinases, per cent inhibition
[1] = biological target: T1, cKit(h) (Homo sapiens, UniProt P10721)
T1 construct: gene KIT
From the text: (§1) A more detailed account of the discovery, chemistry and biochemical properties of this novel class of selective p38δ inhibitors will be given elsewhere.

[2] = biological target: T2, GSK3α(h) (Homo sapiens, UniProt P49840)
T2 construct: gene GSK3A
From the text: as §1

[3] = biological target: T3, PDGFRα(h) (Homo sapiens, UniProt P16234)
T3 construct: gene PDGFRA
From the text: as §1

[4] = biological target: mTOR(h) (Homo sapiens, UniProt P42345)
From the text: as §1

[5] = biological target: T4, MST2(h) (Homo sapiens, UniProt Q13188)
T4 construct: gene STK3
From the text: as §1

[6] = biological target: BTK(h) (Homo sapiens, UniProt Q06187)
Chain of BTK(h) (Q06187 whole entry): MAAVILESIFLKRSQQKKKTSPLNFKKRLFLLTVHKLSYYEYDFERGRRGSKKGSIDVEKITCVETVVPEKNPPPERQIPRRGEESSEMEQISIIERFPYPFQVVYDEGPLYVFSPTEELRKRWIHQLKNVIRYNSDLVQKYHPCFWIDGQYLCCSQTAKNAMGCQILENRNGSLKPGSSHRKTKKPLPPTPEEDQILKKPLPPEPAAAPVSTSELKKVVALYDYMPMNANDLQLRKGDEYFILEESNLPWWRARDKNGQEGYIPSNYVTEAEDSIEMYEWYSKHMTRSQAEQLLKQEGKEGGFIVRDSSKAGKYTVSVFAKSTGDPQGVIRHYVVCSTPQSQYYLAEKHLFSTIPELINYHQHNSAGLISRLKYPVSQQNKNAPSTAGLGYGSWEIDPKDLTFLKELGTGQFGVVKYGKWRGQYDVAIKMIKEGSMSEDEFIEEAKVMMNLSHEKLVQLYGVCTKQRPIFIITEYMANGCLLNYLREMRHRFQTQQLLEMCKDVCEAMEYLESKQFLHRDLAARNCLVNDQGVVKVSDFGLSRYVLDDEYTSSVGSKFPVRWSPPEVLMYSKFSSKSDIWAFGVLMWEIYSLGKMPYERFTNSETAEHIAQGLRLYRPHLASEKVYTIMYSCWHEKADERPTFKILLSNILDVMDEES
From the text: as §1

[7] = biological target: T5, Rsk1(h) (Homo sapiens, UniProt Q15418)
T5 construct: gene RPS6KA1
From the text: as §1

[8] = biological target: T6, cSRC(h) (Homo sapiens, UniProt P12931)
T6 construct: gene SRC
From the text: as §1

[9] = biological target: T7, Pim-1(h) (Homo sapiens, UniProt P11309)
T7 construct: gene PIM1
T7 sequence (P11309 whole entry): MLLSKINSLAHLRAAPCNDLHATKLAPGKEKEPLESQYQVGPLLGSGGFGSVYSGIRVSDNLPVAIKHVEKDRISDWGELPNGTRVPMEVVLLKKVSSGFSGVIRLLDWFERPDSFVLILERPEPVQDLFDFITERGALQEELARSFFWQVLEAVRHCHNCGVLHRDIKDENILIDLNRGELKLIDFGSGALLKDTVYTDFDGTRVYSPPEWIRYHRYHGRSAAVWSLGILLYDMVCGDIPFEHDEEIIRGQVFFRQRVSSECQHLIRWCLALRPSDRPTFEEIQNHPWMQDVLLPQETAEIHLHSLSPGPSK
From the text: as §1

[10] = biological target: LRRK2(h) (Homo sapiens, UniProt Q5S007)
From the text: as §1

[11] = biological target: CDK1/cyclinB(h) (Homo sapiens, UniProt P06493)
Chain of CDK1/cyclinB(h) (P06493 whole entry): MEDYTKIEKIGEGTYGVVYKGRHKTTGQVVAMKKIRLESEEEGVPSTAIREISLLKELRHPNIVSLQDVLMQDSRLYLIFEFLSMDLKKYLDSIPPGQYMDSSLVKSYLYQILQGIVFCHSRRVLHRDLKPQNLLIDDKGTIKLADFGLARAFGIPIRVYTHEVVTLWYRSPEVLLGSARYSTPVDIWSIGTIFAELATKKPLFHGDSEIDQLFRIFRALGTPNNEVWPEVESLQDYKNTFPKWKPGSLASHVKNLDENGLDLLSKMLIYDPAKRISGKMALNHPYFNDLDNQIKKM
Chain of CDK1/cyclinB(h) (P14635 whole entry partner): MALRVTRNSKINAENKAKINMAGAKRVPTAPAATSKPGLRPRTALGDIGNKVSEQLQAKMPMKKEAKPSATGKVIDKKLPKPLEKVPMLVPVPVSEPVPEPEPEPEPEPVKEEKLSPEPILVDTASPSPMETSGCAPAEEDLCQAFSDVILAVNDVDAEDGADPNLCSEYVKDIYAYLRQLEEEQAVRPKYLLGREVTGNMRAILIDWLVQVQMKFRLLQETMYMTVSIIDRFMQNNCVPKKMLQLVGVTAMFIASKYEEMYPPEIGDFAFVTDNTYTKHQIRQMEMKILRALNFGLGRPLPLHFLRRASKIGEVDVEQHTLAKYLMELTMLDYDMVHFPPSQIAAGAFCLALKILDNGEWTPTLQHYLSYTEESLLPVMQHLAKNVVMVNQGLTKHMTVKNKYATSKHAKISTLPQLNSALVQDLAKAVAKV
From the text: as §1

[12] = biological target: EphB1(h) (Homo sapiens, UniProt P54762)
Chain of EphB1(h) (P54762 whole entry): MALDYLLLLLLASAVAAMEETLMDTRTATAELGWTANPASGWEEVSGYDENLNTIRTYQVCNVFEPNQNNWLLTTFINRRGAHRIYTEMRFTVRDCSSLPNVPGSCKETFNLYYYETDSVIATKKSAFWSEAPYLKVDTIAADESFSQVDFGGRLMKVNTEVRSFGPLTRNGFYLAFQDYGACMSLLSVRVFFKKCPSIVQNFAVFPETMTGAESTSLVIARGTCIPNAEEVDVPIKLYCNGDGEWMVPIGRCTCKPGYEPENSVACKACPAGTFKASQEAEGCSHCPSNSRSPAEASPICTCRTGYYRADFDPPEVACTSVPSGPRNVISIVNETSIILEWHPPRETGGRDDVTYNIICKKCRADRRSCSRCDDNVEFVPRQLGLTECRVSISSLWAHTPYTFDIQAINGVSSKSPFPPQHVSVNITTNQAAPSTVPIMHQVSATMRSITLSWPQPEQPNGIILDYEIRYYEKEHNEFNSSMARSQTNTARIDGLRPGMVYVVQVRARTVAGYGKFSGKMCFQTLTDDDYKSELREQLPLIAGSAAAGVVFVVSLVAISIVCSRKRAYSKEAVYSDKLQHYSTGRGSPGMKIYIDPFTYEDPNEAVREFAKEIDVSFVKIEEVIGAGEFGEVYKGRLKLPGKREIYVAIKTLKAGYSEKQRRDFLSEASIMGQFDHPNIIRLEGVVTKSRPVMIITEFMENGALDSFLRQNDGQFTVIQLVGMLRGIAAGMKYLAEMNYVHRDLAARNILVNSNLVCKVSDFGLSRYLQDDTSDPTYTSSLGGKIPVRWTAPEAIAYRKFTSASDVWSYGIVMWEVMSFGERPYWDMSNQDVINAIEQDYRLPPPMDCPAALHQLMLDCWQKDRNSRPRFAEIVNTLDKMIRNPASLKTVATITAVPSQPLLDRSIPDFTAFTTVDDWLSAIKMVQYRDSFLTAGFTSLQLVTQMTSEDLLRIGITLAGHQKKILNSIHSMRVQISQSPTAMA
From the text: as §1

[13] = biological target: Plk1(h) (Homo sapiens, UniProt P53350)
From the text: as §1

[14] = biological target: T8, PKCζ(h) (Homo sapiens, UniProt Q05513)
T8 construct: gene PRKCZ
From the text: as §1

[15] = biological target: T9, c-RAF(h) (Homo sapiens, UniProt P04049)
T9 construct: gene RAF1
From the text: as §1

[16] = biological target: T10, Pim-2(h) (Homo sapiens, UniProt Q9P1W9)
T10 construct: gene PIM2
T10 sequence (Q9P1W9 whole entry): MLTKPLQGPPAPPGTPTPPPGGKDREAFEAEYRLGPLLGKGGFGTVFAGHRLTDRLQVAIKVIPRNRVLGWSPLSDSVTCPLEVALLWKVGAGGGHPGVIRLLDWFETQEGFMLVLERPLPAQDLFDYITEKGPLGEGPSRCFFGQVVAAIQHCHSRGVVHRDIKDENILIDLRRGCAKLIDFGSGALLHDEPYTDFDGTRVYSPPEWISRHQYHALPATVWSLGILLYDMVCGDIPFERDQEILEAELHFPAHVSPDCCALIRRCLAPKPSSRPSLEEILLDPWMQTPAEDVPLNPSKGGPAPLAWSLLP
From the text: as §1

[17] = biological target: T11, p70S6K(h) (Homo sapiens, UniProt P23443)
T11 construct: gene RPS6KB1
From the text: as §1

[18] = biological target: T12, Ron(h) (Homo sapiens, UniProt Q04912)
T12 construct: gene MST1R
From the text: as §1

[19] = biological target: T13, PKBα(h) (Homo sapiens, UniProt P31749)
T13 construct: gene AKT1
From the text: as §1

[20] = biological target: DDR2(h) (Homo sapiens, UniProt Q16832)
Chain of DDR2(h) (Q16832 whole entry): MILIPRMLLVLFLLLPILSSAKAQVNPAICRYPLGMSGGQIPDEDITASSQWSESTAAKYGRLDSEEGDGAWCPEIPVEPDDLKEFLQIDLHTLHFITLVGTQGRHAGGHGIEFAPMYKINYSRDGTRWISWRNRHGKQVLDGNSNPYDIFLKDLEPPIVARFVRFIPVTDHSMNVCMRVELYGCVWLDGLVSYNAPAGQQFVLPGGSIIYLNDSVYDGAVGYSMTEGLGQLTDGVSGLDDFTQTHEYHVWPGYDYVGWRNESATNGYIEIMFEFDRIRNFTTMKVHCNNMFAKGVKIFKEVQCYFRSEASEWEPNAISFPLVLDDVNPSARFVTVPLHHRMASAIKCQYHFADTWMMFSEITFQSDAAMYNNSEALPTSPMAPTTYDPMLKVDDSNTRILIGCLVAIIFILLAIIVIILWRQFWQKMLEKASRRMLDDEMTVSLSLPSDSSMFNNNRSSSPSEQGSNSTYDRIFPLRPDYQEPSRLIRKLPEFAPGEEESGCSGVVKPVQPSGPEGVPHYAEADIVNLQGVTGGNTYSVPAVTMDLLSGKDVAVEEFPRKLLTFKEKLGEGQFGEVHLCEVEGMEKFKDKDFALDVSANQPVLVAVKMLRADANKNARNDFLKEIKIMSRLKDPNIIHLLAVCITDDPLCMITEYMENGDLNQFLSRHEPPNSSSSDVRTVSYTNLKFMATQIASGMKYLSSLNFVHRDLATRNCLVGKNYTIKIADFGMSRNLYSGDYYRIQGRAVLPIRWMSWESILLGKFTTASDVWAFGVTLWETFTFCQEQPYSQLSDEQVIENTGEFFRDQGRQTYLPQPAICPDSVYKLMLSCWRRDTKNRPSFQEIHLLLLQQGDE
From the text: as §1

[21] = biological target: CLK2(h) (Homo sapiens, UniProt P49760)
From the text: as §1

[22] = biological target: T14, CDK5/p25(h) (Homo sapiens, UniProt Q00535)
T14 construct: p25
From the text: as §1

[23] = biological target: Lyn(h) (Homo sapiens, UniProt P07948)
From the text: as §1

[24] = biological target: Syk(h) (Homo sapiens, UniProt P43405)
From the text: as §1

T1 sequence (P10721 whole entry): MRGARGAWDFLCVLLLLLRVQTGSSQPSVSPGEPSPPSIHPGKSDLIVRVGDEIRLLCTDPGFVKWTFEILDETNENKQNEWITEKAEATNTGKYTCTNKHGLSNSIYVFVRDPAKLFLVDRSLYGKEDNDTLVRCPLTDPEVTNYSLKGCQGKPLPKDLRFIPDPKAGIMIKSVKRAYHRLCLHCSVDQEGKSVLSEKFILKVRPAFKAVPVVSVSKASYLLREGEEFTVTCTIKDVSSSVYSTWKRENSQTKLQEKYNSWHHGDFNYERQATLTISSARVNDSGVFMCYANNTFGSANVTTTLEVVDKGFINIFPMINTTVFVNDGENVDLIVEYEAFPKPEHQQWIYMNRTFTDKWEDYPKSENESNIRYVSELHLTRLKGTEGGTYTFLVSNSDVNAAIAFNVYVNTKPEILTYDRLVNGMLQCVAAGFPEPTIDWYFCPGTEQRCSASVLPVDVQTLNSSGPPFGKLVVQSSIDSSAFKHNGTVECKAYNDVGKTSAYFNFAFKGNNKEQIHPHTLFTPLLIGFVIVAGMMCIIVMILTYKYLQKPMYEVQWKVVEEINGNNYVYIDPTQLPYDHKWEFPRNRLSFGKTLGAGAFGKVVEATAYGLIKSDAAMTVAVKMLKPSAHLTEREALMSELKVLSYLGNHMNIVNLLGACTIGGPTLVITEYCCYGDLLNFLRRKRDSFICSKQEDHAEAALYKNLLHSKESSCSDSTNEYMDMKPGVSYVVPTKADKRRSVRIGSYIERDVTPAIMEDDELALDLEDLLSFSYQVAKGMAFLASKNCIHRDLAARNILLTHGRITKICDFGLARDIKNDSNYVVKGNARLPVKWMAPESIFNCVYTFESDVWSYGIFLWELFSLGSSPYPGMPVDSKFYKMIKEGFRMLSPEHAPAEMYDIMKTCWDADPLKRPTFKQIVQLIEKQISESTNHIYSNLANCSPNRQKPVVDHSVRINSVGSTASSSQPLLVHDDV

Compound: CCN1CCOc2nc(N3CCOCC3)nc(-c3ccc(NC(=O)OC)cc3)c2C1=O [Compound A]
- inhibition at 1 µM [1]: 4%
- inhibition at 10 µM [1]: 6%
- inhibition at 1 µM [2]: -9%
- inhibition at 10 µM [2]: -7%
- inhibition at 1 µM [3]: 1%
- inhibition at 10 µM [3]: 0%
- inhibition at 1 µM [4]: -1%
- inhibition at 1 µM [5]: -16%
- inhibition at 10 µM [5]: -2%
- inhibition at 1 µM [6]: -1%
- inhibition at 10 µM [6]: 0%
- inhibition at 1 µM [7]: -11%
- inhibition at 10 µM [7]: 5%
- inhibition at 1 µM [8]: -9%
- inhibition at 10 µM [8]: -12%
- inhibition at 1 µM [9]: -6%
- inhibition at 10 µM [9]: -7%
- inhibition at 1 µM [10]: -18%
- inhibition at 10 µM [10]: -11%
- inhibition at 1 µM [11]: -5%
- inhibition at 10 µM [11]: 4%
- inhibition at 1 µM [12]: 6%
- inhibition at 10 µM [12]: 10%
- inhibition at 1 µM [13]: 2%
- inhibition at 10 µM [13]: 11%
- inhibition at 1 µM [14]: 0%
- inhibition at 10 µM [14]: 10%
- inhibition at 1 µM [15]: -5%
- inhibition at 10 µM [15]: 2%
- inhibition at 1 µM [16]: 8%
- inhibition at 10 µM [16]: 7%
- inhibition at 1 µM [17]: 15%
- inhibition at 1 µM [18]: 10%
- inhibition at 10 µM [18]: 9%
- inhibition at 1 µM [19]: 14%
- inhibition at 10 µM [19]: 17%
- inhibition at 1 µM [20]: 6%
- inhibition at 10 µM [20]: 15%
- inhibition at 1 µM [21]: -2%
- inhibition at 10 µM [21]: -2%
- inhibition at 1 µM [22]: -2%
- inhibition at 10 µM [22]: -2%
- inhibition at 1 µM [23]: -2%
- inhibition at 10 µM [23]: 13%
- inhibition at 1 µM [24]: 4%
- inhibition at 10 µM [24]: 20%
